Data from US20240238423A9, “TETRAHYDROISOQUINOLINE HETEROBIFUNCTIONAL BCL-XL DEGRADERS” (Treeline Biosciences, Inc., priority 2022, published 2024).
Like-named read-outs stand apart in the source and are kept apart here.

Molecular target: T1, Human BCL-XL protein (N-terminal HiBiT tagged BCL-XL in HT1080 cells) (Homo sapiens, UniProt Q07817)
T1 construct: expressed in transfected cells; host or cells: HT-1080 (ATCC CCL-121), stably transduced with lentivirus pLV-UBC-N-HiBiT-BCL-XL-PGK-puro and selected with puromycin
Experiment: HiBiT based degradation assay
Assay type: cell-based
Conditions: HT1080 cells expressing HiBiT-BCL-XL; for Ymin (6 h) / Ymin (24 h): BCL-XL degradation normalized with DMSO control; for DC50: BCL-XL degradation
Outline: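 This HiBiT degradation assay measured loss of BCL-XL in HT1080 cells that stably express an N-terminal HiBiT-BCL-XL fusion delivered by lentivirus. Cells were added to compound-spotted 384-well plates, and luminescence was read on a PHERAstar FSX reader. Signal was expressed relative to DMSO controls, curves were fitted by four-parameter logistic regression, and for hook-shaped curves the Ymin point served as the bottom plateau when calculating EC50.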

T1 sequence (Q07817 whole entry): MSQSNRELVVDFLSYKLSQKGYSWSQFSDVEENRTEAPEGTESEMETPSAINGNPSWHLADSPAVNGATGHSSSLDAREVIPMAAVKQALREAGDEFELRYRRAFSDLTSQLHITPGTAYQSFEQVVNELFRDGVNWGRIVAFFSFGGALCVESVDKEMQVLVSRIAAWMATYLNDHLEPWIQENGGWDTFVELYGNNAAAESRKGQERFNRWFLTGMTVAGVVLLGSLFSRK

| Ymin (6 h) | Ymin (24 h) | DC50 (6 h, read-out: EC50 (6 h)) [nM] | DC50 (24 h, read-out: EC50 (24 h)) [nM] | SMILES |
| --- | --- | --- | --- | --- |
| C (Ymin ≥ 70%) | C (Ymin ≥ 70%) | 1000 to 10000 | < 100 | Cc1c(O[C@H]2CC[C@H](CCC(=O)Nc3cccc4c(C5CCC(=O)NC5=O)nn(C)c34)CC2)cccc1-c1ccc(N2CCc3cccc(C(=O)Nc4nc5ccccc5s4)c3C2)nc1C(=O)O (some centres unmarked) [Compound 124a, 6-(8-(benzo[d]thiazol-2-ylcarbamoyl)-3,4-dihydroisoquinolin-2(1H)-yl)-3-(3-(((1r,4r)-4-(3-((3-(2,6-dioxopiperidin-3-yl)-1-methyl-1H-indazol-7-yl)amino)-3-oxopropyl)cyclohexyl)oxy)-2-methylphenyl)picolinic acid] |
| B (50% ≤ Ymin < 70%) | A (Ymin < 50%) | < 100 | < 100 | Cc1c(OCCC2CCN(CC(=O)N3CCN(c4cccc5c(C6CCC(=O)NC6=O)nn(C)c45)CC3)CC2)cccc1-c1ccc(N2CCc3cccc(C(=O)Nc4nc5ccccc5s4)c3C2)nc1C(=O)O (centres unmarked) [Compound 145, 6-(8-(benzo[d]thiazol-2-ylcarbamoyl)-3,4-dihydroisoquinolin-2(1H)-yl)-3-(3-(2-(1-(2-(4-(3-(2,6-dioxopiperidin-3-yl)-1-methyl-1H-indazol-7-yl)piperazin-1-yl)-2-oxoethyl)piperidin-4-yl)ethoxy)-2-methylphenyl)picolinic acid] |
| C (Ymin ≥ 70%) | C (Ymin ≥ 70%) | 1000 to 10000 | < 100 | Cc1c(Oc2ccccc2CCCC(=O)Nc2cccc3c(C4CCC(=O)NC4=O)nn(C)c23)cccc1-c1ccc(N2CCc3cccc(C(=O)Nc4nc5ccccc5s4)c3C2)nc1C(=O)O (centres unmarked) [Compound 128, 6-(8-(benzo[d]thiazol-2-ylcarbamoyl)-3,4-dihydroisoquinolin-2(1H)-yl)-3-(3-(2-(4-((3-(2,6-dioxopiperidin-3-yl)-1-methyl-1H-indazol-7-yl)amino)-4-oxobutyl)phenoxy)-2-methylphenyl)picolinic acid] |
| B (50% ≤ Ymin < 70%) | B (50% ≤ Ymin < 70%) | 100 to 1000 | 1000 to 10000 | Cc1c(OCCOc2ccc(CC(=O)Nc3cccc4c(C5CCC(=O)NC5=O)nn(C)c34)cc2)cccc1-c1ccc(N2CCc3cccc(C(=O)Nc4nc5ccccc5s4)c3C2)nc1C(=O)O (centres unmarked) [Compound 118, 6-[8-(1,3-benzothiazol-2-ylcarbamoyl)-3,4-dihydro-1H-isoquinolin-2-yl]-3-[3-[2-[4-[2-[[3-(2,6-dioxo-3-piperidyl)-1-methyl-indazol-7-yl]amino]-2-oxo-ethyl]phenoxy]ethoxy]-2-methyl-phenyl]pyridine-2-carboxylic acid] |
| B (50% ≤ Ymin < 70%) |  | 100 to 1000 |  | Cc1c(-c2ccc(N3CCc4cccc(C(=O)Nc5nc6ccccc6s5)c4C3)nc2C(=O)NCCCCCCCCCCCC(=O)Nc2ccc3c(C4CCC(=O)NC4=O)nn(C)c3c2)cnn1CC12CC3CC(CC(C3)C1)C2 (centres unmarked) [Compound 113, 2-(5-(1-((3r,5r,7r)-adamantan-1-ylmethyl)-5-methyl-1H-pyrazol-4-yl)-6-((12-((3-(2,6-dioxopiperidin-3-yl)-1-methyl-1H-indazol-6-yl)amino)-12-oxododecyl)carbamoyl)pyridin-2-yl)-N-(benzo[d]thiazol-2-yl)-1,2,3,4-tetrahydroisoquinoline-8-carboxamide] |
|  | B (50% ≤ Ymin < 70%) |  | < 100 | Cc1c(OCCC[C@@H]2CCCN(CC(=O)Nc3cccc4c(C5CCC(=O)NC5=O)nn(C)c34)C2)cccc1-c1ccc(N2CCc3cccc(C(=O)Nc4nc5ccccc5s4)c3C2)nc1C(=O)O (single isomer, unassigned) [Compound 210a] |
|  | A (Ymin < 50%) |  | < 100 | Cc1c(O[C@H]2CC[C@H](CCCCN3CCC(Oc4ccc5c(C6CCC(=O)NC6=O)nn(C)c5c4)CC3)CC2)cccc1-c1ccc(N2CCc3cccc(C(=O)Nc4nc5ccccc5s4)c3C2)nc1C(=O)O (some centres unmarked) [Compound 326a, 6-(8-(benzo[d]thiazol-2-ylcarbamoyl)-3,4-dihydroisoquinolin-2(1H)-yl)-3-(3-(((1s,4r)-4-(4-(4-((3-(2,6-dioxopiperidin-3-yl)-1-methyl-1H-indazol-6-yl)oxy)piperidin-1-yl)butyl)cyclohexyl)oxy)-2-methylphenyl)picolinic acid] |
|  | A (Ymin < 50%) |  | < 100 | Cc1c(O[C@H]2CC[C@H](CCCN3CCN(c4cccc5c(C6CCC(=O)NC6=O)nn(C)c45)[C@@H](C)C3)CC2)cccc1-c1ccc(N2CCc3cccc(C(=O)Nc4nc5ccccc5s4)c3C2)nc1C(=O)O (stereo partly drawn) [Compound 274b, 6-(8-(benzo[d]thiazol-2-ylcarbamoyl)-3,4-dihydroisoquinolin-2(1H)-yl)-3-(3-(((1R,4r)-4-(3-((3S)-4-(3-(2,6-dioxopiperidin-3-yl)-1-methyl-1H-indazol-7-yl)-3-methylpiperazin-1-yl)propyl)cyclohexyl)oxy)-2-methylphenyl)picolinic acid] |
|  | A (Ymin < 50%) |  | < 100 | Cc1cc(OCC2CC3(CCN(CC(=O)Nc4ccc5c(C6CCC(=O)NC6=O)nn(C)c5c4)CC3)C2)ccc1-c1ccc(N2CCc3cccc(C(=O)Nc4nc5ccccc5s4)c3C2)nc1C(=O)O (centres unmarked) [Compound 265, 6-(8-(benzo[d]thiazol-2-ylcarbamoyl)-3,4-dihydroisoquinolin-2(1H)-yl)-3-(4-((7-(2-((3-(2,6-dioxopiperidin-3-yl)-1-methyl-1H-indazol-6-yl)amino)-2-oxoethyl)-7-azaspiro[3.5]nonan-2-yl)methoxy)-2-methylphenyl)picolinic acid] |
| B (50% ≤ Ymin < 70%) | A (Ymin < 50%) | < 100 | < 100 | Cc1c(OCCCCCCCN2CCN(c3ccc4c(C5CCC(=O)NC5=O)nn(C)c4c3)CC2)cccc1-c1ccc(N2CCc3cccc(C(=O)Nc4nc5ccccc5s4)c3C2)nc1C(=O)O (centres unmarked) [Compound 137, 6-(8-(benzo[d]thiazol-2-ylcarbamoyl)-3,4-dihydroisoquinolin-2(1H)-yl)-3-(3-((7-(4-(3-(2,6-dioxopiperidin-3-yl)-1-methyl-1H-indazol-6-yl)piperazin-1-yl)heptyl)oxy)-2-methylphenyl)picolinic acid] |
|  | A (Ymin < 50%) |  | < 100 | Cc1c(O[C@H]2CC[C@H](CCC[C@@H](C)N3CCN(c4ccc5c(C6CCC(=O)NC6=O)nn(C)c5c4)CC3)CC2)cccc1-c1ccc(N2CCc3cccc(C(=O)Nc4nc5ccccc5s4)c3C2)nc1C(=O)O (single isomer, unassigned) [Compound 333b] |
| B (50% ≤ Ymin < 70%) | B (50% ≤ Ymin < 70%) | 100 to 1000 | 100 to 1000 | Cc1c(OCCOC2CCN(CC(=O)Nc3cccc4c(C5CCC(=O)NC5=O)nn(C)c34)CC2)cccc1-c1ccc(N2CCc3cccc(C(=O)Nc4nc5ccccc5s4)c3C2)nc1C(=O)O (centres unmarked) [Compound 194, 6-[8-(1,3-benzothiazol-2-ylcarbamoyl)-3,4-dihydro-1H-isoquinolin-2-yl]-3-[3-[2-[[1-[2-[[3-(2,6-dioxo-3-piperidyl)-1-methyl-indazol-7-yl]amino]-2-oxo-ethyl]-4-piperidyl]oxy]ethoxy]-2-methyl-phenyl]pyridine-2-carboxylic acid] |
|  | A (Ymin < 50%) |  | < 100 | Cc1c(O[C@H]2CC[C@H](CCCCN3CCC(Oc4cccc5c(C6CCC(=O)NC6=O)nn(C)c45)CC3)CC2)cccc1-c1ccc(N2CCc3cccc(C(=O)Nc4nc5ccccc5s4)c3C2)nc1C(=O)O (some centres unmarked) [Compound 327a, 6-(8-(benzo[d]thiazol-2-ylcarbamoyl)-3,4-dihydroisoquinolin-2(1H)-yl)-3-(3-(((1s,4r)-4-(4-(4-((3-(2,6-dioxopiperidin-3-yl)-1-methyl-1H-indazol-7-yl)oxy)piperidin-1-yl)butyl)cyclohexyl)oxy)-2-methylphenyl)picolinic acid] |
| A (Ymin < 50%) | A (Ymin < 50%) | < 100 | < 100 | Cc1c(OCCCC2CCN(CC(=O)N3CCN(c4cccc5c(C6CCC(=O)NC6=O)nn(C)c45)CC3)CC2)cccc1-c1ccc(N2CCc3cccc(C(=O)Nc4nc5ccccc5s4)c3C2)nc1C(=O)O (centres unmarked) [Compound 144, 6-[8-(1,3-benzothiazol-2-ylcarbamoyl)-3,4-dihydro-1H-isoquinolin-2-yl]-3-[3-[3-[1-[2-[4-[3-(2,6-dioxo-3-piperidyl)-1-methyl-indazol-7-yl]piperazin-1-yl]-2-oxo-ethyl]-4-piperidyl]propoxy]-2-methyl-phenyl]pyridine-2-carboxylic acid] |
| B (50% ≤ Ymin < 70%) |  | < 100 |  | Cc1c(-c2ccc(N3CCc4cccc(C(=O)Nc5nc6ccccc6s5)c4C3)nc2C(=O)NCCCCCCCC(=O)Nc2ccc3c(C4CCC(=O)NC4=O)nn(C)c3c2)cnn1CC12CC3CC(CC(C3)C1)C2 (centres unmarked) [Compound 157, 2-(5-(1-(((3r,5r,7r)-adamantan-1-yl)methyl)-5-methyl-1H-pyrazol-4-yl)-6-((8-((3-(2,6-dioxopiperidin-3-yl)-1-methyl-1H-indazol-6-yl)amino)-8-oxooctyl)carbamoyl)pyridin-2-yl)-N-(benzo[d]thiazol-2-yl)-1,2,3,4-tetrahydroisoquinoline-8-carboxamide] |
